# Data taken from patent US20110287045A1, “Enhanced immune response against infections” (priority 2010, published 2011).
# pKd: −log10 of the molar value. “Also recorded” adds a separate entry of the source.
# Legend:
# platelets = test: Inhibitor pre-treatment before agonist-induced platelet activation (flow cytometry); type: cell-based; settings: for inhibition of CCL5-induced platelet activation / inhibition of Tat-induced platelet activation: pre-treatment 37° C. 30 minutes, SB328437 3 nM, EGTA 100 μM, PGE1 5 μM; for inhibition of CCL5-induced platelet activation: CCL5 10 μg/ml; for inhibition of Tat-induced platelet activation: Tat 20 ng/ml
# Procedure: (§1) Gel-filtered human or mouse platelets were prepared from platelet-rich plasma obtained from blood collected in 0.38% sodium citrate via heart puncture. 1×10^7gel-filtered platelets were incubated under different stimulation conditions at 37° C. for 30 minutes. For in vitro platelet activation, Tat 20 ng/ml, CCL5 10 μg/ml, or control Ad18-66 20 ng/ml were used. To test the role of chemokine receptor CCR3, calcium flux and cAMP in Tat-induced platelet activation, CCR3 inhibitor SB328437 3 nM, calcium flux inhibitor EGTA 100 μM and prostaglandin E1 (PGE1, a cAMP elevator) 5 μM were used separately to treat platelets at 37° C. for 30 minutes before incubation with Tat, CCL5 or control as above. To test the role of β3 integrin, platelets from β3 integrin knock out mice were incubated with Tat, CCL5, thrombin, and control. Treated platelets were then stained with anti-CD154-FITC and anti-CD62P-PE antibody on ice for one hour. Fluorescent-labeled platelets were measured by flow cytometry (FACScan, Becton-Dickinson, Calif.).
# integrin αVβ3 = integrin αVβ3 (Homo sapiens, UniProt P05106+P06756); settings: read-out: dissociation constants (Kd), integrin αVβ3; cited from earlier work
# Sequence of integrin αVβ3 (P06756 31-889 limits assumed): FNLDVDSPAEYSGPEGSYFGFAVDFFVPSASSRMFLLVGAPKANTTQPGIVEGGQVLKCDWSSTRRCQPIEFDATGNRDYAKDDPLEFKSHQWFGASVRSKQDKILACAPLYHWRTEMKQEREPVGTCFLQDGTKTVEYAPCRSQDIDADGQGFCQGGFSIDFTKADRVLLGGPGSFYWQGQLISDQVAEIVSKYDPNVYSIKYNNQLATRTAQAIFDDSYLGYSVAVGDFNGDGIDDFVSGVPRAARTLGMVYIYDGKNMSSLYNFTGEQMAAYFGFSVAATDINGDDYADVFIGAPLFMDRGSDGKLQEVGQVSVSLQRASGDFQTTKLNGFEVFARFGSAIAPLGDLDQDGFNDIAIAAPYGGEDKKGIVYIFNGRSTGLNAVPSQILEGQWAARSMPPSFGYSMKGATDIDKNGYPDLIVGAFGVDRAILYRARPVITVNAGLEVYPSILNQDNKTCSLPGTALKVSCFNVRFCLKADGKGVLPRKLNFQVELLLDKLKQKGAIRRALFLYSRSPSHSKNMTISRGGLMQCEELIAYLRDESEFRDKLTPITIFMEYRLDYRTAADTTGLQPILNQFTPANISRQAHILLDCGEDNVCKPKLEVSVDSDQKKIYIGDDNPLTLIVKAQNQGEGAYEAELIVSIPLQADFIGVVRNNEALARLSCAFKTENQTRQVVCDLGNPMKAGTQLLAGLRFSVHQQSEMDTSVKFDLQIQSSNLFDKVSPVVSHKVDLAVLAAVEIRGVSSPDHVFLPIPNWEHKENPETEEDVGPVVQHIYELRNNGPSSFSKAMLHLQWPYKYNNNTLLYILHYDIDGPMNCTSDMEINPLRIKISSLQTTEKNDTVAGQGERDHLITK
# Sequence of integrin αVβ3 (P06756 891-1048 partner limits assumed): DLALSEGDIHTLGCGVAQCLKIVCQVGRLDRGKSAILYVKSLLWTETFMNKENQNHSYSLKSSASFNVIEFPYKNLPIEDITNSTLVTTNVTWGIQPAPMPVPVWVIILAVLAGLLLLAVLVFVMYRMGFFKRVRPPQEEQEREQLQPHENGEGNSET
# Sequence of integrin αVβ3 (P05106 27-788): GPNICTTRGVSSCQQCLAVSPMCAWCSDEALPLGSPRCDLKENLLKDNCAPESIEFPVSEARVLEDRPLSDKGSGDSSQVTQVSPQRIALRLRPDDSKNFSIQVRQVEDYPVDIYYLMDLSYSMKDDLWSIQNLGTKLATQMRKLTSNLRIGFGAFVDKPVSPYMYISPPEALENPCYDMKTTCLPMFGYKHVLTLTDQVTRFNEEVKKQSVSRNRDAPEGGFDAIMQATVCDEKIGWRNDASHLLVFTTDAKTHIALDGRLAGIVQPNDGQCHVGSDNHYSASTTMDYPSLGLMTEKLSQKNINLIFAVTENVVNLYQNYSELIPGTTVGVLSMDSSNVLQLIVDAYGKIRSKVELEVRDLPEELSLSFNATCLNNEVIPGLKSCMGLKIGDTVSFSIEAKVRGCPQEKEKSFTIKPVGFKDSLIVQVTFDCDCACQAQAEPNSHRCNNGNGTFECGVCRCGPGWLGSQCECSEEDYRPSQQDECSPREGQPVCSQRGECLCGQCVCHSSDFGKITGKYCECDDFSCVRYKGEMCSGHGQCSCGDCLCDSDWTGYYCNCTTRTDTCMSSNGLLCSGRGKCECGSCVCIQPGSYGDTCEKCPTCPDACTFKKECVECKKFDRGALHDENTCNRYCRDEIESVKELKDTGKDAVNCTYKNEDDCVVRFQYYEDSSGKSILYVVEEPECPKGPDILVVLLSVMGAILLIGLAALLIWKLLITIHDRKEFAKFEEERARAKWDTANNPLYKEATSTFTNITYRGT
# [1] = tested on: platelets from integrin β3 knockout mice; test: Flow cytometry assay of platelet activation, platelets from integrin β3 knockout mice; type: cell-based, mouse; settings: β3−/− gel-filtered platelets
# Procedure: as §1
Molecule,inhibition of CCL5-induced platelet activation (platelets),inhibition of Tat-induced platelet activation (platelets),pKd (integrin αVβ3),further results
O=C(O)CN(CCOCCOCCN(CC(=O)O)CC(=O)O)CC(=O)O [EGTA],completely inhibited; also recorded: completely blocks,completely inhibited,–,–
"CCCCC[C@H](O)/C=C/[C@H]1[C@H](O)CC(=O)[C@@H]1CCCCCCC(=O)O [PGE1, prostaglandin E1]",partially inhibited,No significant inhibition,–,inhibition of CCL5-induced platelet activation (platelets; listed as prostaglandin E1 (PGE1)): partially blocks
COC(=O)[C@H](Cc1ccc([N+](=O)[O-])cc1)NC(=O)c1cccc2ccccc12 [SB328437],completely inhibited,completely inhibited,–,"inhibition of thrombin-induced platelet activation (platelets; SB328437 pre-treatment, FIG. 9 in β3−/− platelets): did not inhibit; also recorded: do not inhibit"
fibrinogen,–,–,7.57,–
thrombin,–,–,–,platelet activation in integrin β3 deficient mouse platelets [1]: still induces platelet activation
"vitronectin: integrin αVβ3 ligand, literature comparator",–,–,7.19,–
